Results from patent US20090304692A1, “TRIAZINE COMPOUNDS AS PI3 KINASE AND MTOR INHIBITORS” (Wyeth, priority 2008, published 2009).
Like-named read-outs stand apart in the source and are kept apart here.

Columns and labels:
[1] = test system: human prostate PC3-mm2 tumor cell line; assay: In vitro cell culture growth assay (MTS), PC3-mm2; type: cell-based; settings: Homo sapiens, PC3MM2, 72 h, MTS cell growth assay, three days after drug treatment; read-out: IC50 PC3-mm2
[2] = test system: human breast MDA-MB-361 tumor cell line; assay: In vitro cell culture growth assay (MTS), MDA-MB-361; type: cell-based; settings: Homo sapiens, MDA-MB-361, 72 h; MTS cell growth assay, three days after drug treatment; read-out: IC50 MDA-MB-361
PI3K-α = PI3K-α (Homo sapiens, UniProt P42336); assay: PI3K-alpha fluorescence polarization assay; settings: read-out: IC50 PI3Kα
Sequence of PI3K-α (P42336 whole entry, species assumed): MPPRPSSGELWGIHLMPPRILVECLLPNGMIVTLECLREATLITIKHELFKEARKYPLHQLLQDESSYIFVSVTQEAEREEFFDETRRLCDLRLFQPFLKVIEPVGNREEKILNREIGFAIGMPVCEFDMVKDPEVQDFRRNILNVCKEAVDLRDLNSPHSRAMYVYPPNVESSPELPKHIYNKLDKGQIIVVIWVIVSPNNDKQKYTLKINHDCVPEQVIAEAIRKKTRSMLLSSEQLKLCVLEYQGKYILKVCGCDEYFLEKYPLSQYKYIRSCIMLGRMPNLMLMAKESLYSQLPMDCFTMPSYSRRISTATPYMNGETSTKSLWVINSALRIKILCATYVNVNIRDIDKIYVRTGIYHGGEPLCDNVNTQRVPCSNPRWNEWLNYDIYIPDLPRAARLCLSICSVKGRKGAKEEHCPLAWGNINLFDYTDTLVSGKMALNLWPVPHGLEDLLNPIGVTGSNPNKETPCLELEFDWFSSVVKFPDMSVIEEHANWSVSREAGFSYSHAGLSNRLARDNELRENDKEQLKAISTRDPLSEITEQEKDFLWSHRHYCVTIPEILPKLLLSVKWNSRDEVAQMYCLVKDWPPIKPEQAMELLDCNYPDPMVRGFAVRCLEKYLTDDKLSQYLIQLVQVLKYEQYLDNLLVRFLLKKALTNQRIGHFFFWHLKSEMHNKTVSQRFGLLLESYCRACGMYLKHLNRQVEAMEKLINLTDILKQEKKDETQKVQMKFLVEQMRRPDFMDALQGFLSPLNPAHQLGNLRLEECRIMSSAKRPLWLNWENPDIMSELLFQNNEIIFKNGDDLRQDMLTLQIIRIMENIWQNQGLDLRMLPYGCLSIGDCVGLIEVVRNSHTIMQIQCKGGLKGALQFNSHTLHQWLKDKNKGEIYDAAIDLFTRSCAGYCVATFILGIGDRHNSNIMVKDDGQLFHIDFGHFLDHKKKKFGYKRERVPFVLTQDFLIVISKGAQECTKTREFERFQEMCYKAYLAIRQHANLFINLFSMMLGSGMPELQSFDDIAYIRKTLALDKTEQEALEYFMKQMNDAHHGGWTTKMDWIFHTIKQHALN
Sequence of PI3K-α (P27986 whole entry partner, species assumed): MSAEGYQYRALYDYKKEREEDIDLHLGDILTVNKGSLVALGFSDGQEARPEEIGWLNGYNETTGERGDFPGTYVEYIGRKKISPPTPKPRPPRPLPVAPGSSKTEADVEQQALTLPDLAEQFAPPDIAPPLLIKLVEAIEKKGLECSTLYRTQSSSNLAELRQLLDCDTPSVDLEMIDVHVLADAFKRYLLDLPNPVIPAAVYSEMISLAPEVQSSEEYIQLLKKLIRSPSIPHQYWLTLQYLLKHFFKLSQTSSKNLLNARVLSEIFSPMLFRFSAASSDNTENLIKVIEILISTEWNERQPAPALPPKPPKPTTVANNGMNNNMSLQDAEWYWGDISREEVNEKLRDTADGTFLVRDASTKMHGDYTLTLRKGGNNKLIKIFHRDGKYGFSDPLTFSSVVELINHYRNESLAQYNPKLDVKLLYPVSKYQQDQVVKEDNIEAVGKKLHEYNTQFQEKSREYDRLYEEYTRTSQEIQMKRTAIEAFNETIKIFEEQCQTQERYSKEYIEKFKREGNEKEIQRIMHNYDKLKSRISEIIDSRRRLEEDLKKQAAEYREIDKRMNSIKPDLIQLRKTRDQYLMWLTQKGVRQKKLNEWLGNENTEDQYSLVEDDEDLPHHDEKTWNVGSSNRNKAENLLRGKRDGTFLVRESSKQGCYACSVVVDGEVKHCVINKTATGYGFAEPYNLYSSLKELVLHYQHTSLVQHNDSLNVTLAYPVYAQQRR

PI3K-γ = PI3K-γ (Homo sapiens, UniProt P48736); assay: PI3K-gamma fluorescence polarization assay; settings: read-out: IC50 PI3Kγ
Sequence of PI3K-γ (P48736 whole entry, species assumed): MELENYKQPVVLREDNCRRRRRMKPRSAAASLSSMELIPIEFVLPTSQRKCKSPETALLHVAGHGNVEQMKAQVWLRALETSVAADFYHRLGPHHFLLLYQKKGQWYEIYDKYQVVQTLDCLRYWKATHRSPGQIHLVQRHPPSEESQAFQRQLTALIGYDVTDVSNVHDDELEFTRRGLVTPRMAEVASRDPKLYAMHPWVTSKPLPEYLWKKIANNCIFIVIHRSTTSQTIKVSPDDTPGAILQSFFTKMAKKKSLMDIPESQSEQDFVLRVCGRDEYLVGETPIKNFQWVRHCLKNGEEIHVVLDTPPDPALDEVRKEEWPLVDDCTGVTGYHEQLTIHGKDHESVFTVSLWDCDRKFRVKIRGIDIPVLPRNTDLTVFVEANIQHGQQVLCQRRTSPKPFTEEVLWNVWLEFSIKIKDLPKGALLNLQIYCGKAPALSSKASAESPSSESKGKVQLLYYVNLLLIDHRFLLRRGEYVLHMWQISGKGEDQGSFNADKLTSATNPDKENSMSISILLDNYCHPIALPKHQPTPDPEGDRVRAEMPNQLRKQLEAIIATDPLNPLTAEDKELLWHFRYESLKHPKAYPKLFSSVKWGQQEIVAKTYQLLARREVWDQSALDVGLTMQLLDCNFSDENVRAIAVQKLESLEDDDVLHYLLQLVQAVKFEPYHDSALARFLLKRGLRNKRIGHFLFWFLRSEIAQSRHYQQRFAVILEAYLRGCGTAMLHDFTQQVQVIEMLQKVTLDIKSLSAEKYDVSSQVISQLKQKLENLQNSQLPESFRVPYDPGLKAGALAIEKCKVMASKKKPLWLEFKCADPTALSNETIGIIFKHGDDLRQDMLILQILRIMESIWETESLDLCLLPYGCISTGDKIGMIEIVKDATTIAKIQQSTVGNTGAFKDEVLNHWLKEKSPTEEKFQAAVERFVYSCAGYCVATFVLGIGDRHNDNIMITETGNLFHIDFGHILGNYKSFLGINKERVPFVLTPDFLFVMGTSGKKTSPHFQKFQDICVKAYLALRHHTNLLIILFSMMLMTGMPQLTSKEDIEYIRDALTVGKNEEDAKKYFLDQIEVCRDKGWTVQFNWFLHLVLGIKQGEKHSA

Human mTOR (FLAG-TOR) = Human mTOR (FLAG-TOR) (Homo sapiens, UniProt P42345); assay: mTOR kinase assay (DELFIA format, purified enzyme); type: biochemical; settings: read-out: IC50 mTOR
[3] = test system: human tumor xenograft models; settings: cited from earlier work
[4] = test system: acute lymphoblastic leukemia xenograft; settings: NOS/SCID xenograft mouse model of acute lymphoblastic leukemia; cited from earlier work
mTOR enzymes = mTOR enzymes (Homo sapiens, UniProt P42345); settings: read-out: mTOR enzymes IC50; cited from earlier work

SMILES	IC50 [1] [nM]	IC50 [2] [nM]	IC50 (PI3K-α) [nM]	melting point [°C]	IC50 (PI3K-γ) [nM]	IC50 (Human mTOR (FLAG-TOR)) [nM]	activity against human tumor models ([3]; prostrate (PC-3) and glioblastoma (U-87) xenografts)	activity against human tumor models ([3]; I.P. dosing in mice, U87MG, PC3, MDA-MB-468, MDA-MB-435, HCT 116, SKOV3, IGROV-1 xenografts)	activity in xenograft mouse model [4]	growth of human xenograft tumors ([3]; chronic oral administration, 400 mg/kg, mouse, A549, PC-3, WiDr)	IC50 (mTOR enzymes) [nM]
COC(=O)c1ccc(NC(=O)Nc2ccc(-c3nc(N4CCC4)nc(N4CCOCC4)n3)cc2)cc1 [Example 141, methyl 4-({[4-(4-azetidin-1-yl-6-morpholin-4-yl-1,3,5-triazin-2-yl)phenyl]carbamoyl}amino)benzoate]	–	–	241	212	3380	26	–	–	–	–	–
O=C(Nc1ccc(C(=O)O)cc1)Nc1ccc(-c2nc(N3CCC3)nc(N3CCOCC3)n2)cc1 [Example 195, 4-({[4-(4-azetidin-1-yl-6-morpholin-4-yl-1,3,5-triazin-2-yl)phenyl]carbamoyl}amino) benzoic acid]	–	–	115	204	498	21	–	–	–	–	–
Cn1c(=O)n(-c2ccc(C(C)(C)C#N)cc2)c2c3cc(-c4cnc5ccccc5c4)ccc3ncc21 [NVP-BEZ-235, 2-methyl-2-(4-(3-methyl-2-oxo-8-(quinolin-3-yl)-2,3-dihydro-1H-imidazo[4,5-c]quinolin-1-yl)phenyl)propanenitrile]	–	–	–	–	–	–	demonstrated activity	–	–	–	–
Oc1cccc(-c2nc(N3CCOCC3)c3oc4ncccc4c3n2)c1 [PI103, 3-(4-(4-morpholinyl)pyrido[3′,2′:4,5]furo[3,2-d]pyrimidin-2-yl)phenol]	–	–	–	–	–	–	–	demonstrated activity	–	–	–
CO[C@H]1C[C@@H]2CC[C@@H](C)[C@@](O)(O2)C(=O)C(=O)N2CCCC[C@H]2C(=O)O[C@H]([C@H](C)C[C@@H]2CC[C@@H](OC(=O)C(C)(CO)CO)[C@H](OC)C2)CC(=O)[C@H](C)/C=C(\C)[C@@H](O)[C@@H](OC)C(=O)[C@H](C)C[C@H](C)/C=C/C=C/C=C/1C [Torisel]	–	–	–	–	–	–	–	–	active	–	–
FC(F)c1nc2ccccc2n1-c1nc(N2CCOCC2)nc(N2CCOCC2)n1 [ZSTK474, 2-(2-difluoromethylbenzoimidazol-1-yl)-4,6-dimorpholino-1,3,5-triazine]	–	–	–	–	–	–	–	–	–	completely inhibited growth	> 10000

More lines, in order of falling IC50 (PI3K-α), values ahead:

IC50 [1] [nM]	IC50 [2] [nM]	IC50 (PI3K-α) [nM]	melting point [°C]	IC50 (PI3K-γ) [nM]	IC50 (Human mTOR (FLAG-TOR)) [nM]	SMILES	activity against human tumor models ([3]; prostrate (PC-3) and glioblastoma (U-87) xenografts)	activity against human tumor models ([3]; I.P. dosing in mice, U87MG, PC3, MDA-MB-468, MDA-MB-435, HCT 116, SKOV3, IGROV-1 xenografts)	activity in xenograft mouse model [4]	growth of human xenograft tumors ([3]; chronic oral administration, 400 mg/kg, mouse, A549, PC-3, WiDr)	IC50 (mTOR enzymes) [nM]
–	–	90	202	323	85	CC(=O)c1ccc(NC(=O)Nc2ccc(-c3nc(N4CCOCC4)nc(N4C[C@H]5C[C@@H]4CN5C(=O)OC(C)(C)C)n3)cc2)cc1 [Example 257, tert-butyl (1R,4R)-5-[4-(4-{[(4-acetylphenyl)carbamoyl]amino}phenyl)-6-morpholin-4-yl-1,3,5-triazin-2-yl]-2,5-diazabicyclo[2.2.1]heptane-2-carboxylate]	–	–	–	–	–
–	–	68	192	182	32	CC(C)(C)OC(=O)N1C[C@H]2C[C@@H]1CN2c1nc(-c2ccc(NC(=O)Nc3ccncc3)cc2)nc(N2CCOCC2)n1 [Example 256, tert-butyl(1R,4R)-5-(4-morpholin-4-yl-6-{4-[(pyridin-4-ylcarbamoyl)amino]phenyl}-1,3,5-triazin-2-yl)-2,5-diazabicyclo[2.2.1]heptane-2-carboxylate]	–	–	–	–	–
340	297	39	218	106	5.3	COC(=O)c1ccc(NC(=O)Nc2ccc(-c3nc(C(C)C)nc(N4CCOCC4)n3)cc2)cc1 [Example 300, methyl 4-[({4-[4-(1-methylethyl)-6-morpholin-4-yl-1,3,5-triazin-2-yl]phenyl}carbamoyl)amino]benzoate]	–	–	–	–	–
279	225	27	212	100	27	O=C(Nc1ccncc1)Nc1ccc(-c2nc(N3CCC3)nc(N3CCOCC3)n2)cc1 [Example 140, 1-[4-(4-azetidin-1-yl-6-morpholin-4-yl-1,3,5-triazin-2-yl)phenyl]-3-pyridin-4-ylurea]	–	–	–	–	–
48	38	6	258	40	1.8	O=C(Nc1ccncc1)Nc1ccc(-c2nc(N3CCOCC3)nc(N3CC4CCC(C3)O4)n2)cc1 [Example 48, 1-{4-[4-morpholin-4-yl-6-(8-oxa-3-azabicyclo[3.2.1]oct-3-yl)-1,3,5-triazin-2-yl]phenyl}-3-pyridin-4-ylurea]	–	–	–	–	–
82	50	6	170	55	13	CN1CCN(C(=O)c2ccc(NC(=O)Nc3ccc(-c4nc(N5CCC5)nc(N5CCOCC5)n4)cc3)cc2)CC1 [Example 196, 1-[4-(4-azetidin-1-yl-6-morpholin-4-yl-1,3,5-triazin-2-yl)phenyl]-3-{4-[(4-methylpiperazin-1-yl)carbonyl]phenyl}urea]	–	–	–	–	–
16	14	3	238	30	1.05	O=C(Nc1ccncc1)Nc1ccc(-c2nc(OC3CCOCC3)nc(N3CCOCC3)n2)cc1 [Example 59, 1-{4-[4-morpholin-4-yl-6-(tetrahydro-2H-pyran-4-yloxy)-1,3,5-triazin-2-yl]phenyl}-3-pyridin-4-ylurea]	–	–	–	–	–
31	68	3	296 to 298	20	1	O=C(Nc1ccc(C(=O)NCc2ccccn2)cc1)Nc1ccc(-c2nc(N3CCOCC3)nc(N3CCOCC3)n2)cc1 [Example 263, 4-({[4-(4,6-dimorpholin-4-yl-1,3,5-triazin-2-yl)phenyl]carbamoyl}amino)-N-(pyridin-2-ylmethyl)benzamide]	–	–	–	–	–
